Measurements: US5461045A, “Fused benzeneoxyacetic acid derivatives” (Ono Pharmaceutical Co., Ltd., priority 1992, dated 1995)

Assays:
PGI2 receptor = molecular target: T1, PGI2 receptor (Homo sapiens, UniProt P43119); test: Inhibitory activity against 3H-iloprost binding onto PGI2 receptor in human platelet membrane fraction; details: inhibition of 10 nM [3H]-iloprost specific binding; human platelet membranes 300 μg; 24° C., 30 min; pH 7.4
T1 construct: 300 μg of platelet plasma membranes; from tissue; host or cells: human platelets (plasma membranes)
Procedure: i) Inhibitory activity against ^3 H-iloprost onto PGI2 receptor in human platelet membrane fraction The binding assay was performed in 200 μl volumes containing 300 μg of platelet plasma membranes. The membranes were added to a buffer composed of 50 mM Tris-HCl (pH 7.4), 15 mM MgCl2, 5 mM EDTA with test compound and 10 nM [^3 H]-iloprost. The membranes were incubated at 24° C. for 30 min. After incubation, 4ml of ice-cold 10 mM Tris-HCl buffer (pH 7.4) was added to the reaction mixture, and filtered through Whatman GF/B glass fiber filter, and washed 4 times with 4 ml of ice-cold 10 mM Tris-HCl buffer (pH 7.4) to separate bound and free [^3 H]-iloprost. After washing, the filter was dried and radioactivity was counted. Non-specific binding was obtained by performing parallel binding experiments in the presence of 10 μM non-labelled iloprost. Specific binding was calculated by subtracting the non-specific binding from the total binding. The inhibitory effect of test compound was calculated from the following equation. The percentage of inhibition (%)=100-(B1 /B0 ×100) B1 : specific [^3 H]-iloprost binding in presence of test compound B0 : specific [^3 H]-iloprost binding in absence of test compound

[1] = test system: Human platelet aggregation; test: Inhibitory effect on human platelet aggregation (ADP-induced, platelet-rich plasma); type: cell-based; details: compound added 1 min prior to ADP (4 μM)
Procedure: | ii) Inhibitory effect on Human platelet aggregation Method of | experiment Platelet-rich plasma was prepared from human blood (5×10^5 platelets/mm^3), and the test compound was added to PRP 1 min prior to the addition of ADP (4 μM). The aggregation was monitored using a platelet aggregometer (NBS HEMA TRACER 601, Niko Bioscience, Japan).

T1 sequence (P43119 whole entry): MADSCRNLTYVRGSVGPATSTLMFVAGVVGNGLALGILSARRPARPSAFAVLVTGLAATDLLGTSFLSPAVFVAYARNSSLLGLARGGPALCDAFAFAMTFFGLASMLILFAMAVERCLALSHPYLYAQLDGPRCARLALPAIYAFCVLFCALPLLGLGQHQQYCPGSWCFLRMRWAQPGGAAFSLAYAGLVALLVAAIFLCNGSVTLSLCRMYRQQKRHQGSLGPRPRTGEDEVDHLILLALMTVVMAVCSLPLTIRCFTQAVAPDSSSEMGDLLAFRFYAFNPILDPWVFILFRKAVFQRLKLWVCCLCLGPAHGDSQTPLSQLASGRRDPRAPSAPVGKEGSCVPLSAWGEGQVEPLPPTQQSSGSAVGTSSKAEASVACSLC

Row | SMILES | IC50 (PGI2 receptor) [nM] | IC50 [1] [nM]
1 | O=C(O)COc1cccc2c1CCCC(C=NOC(c1ccccc1)c1ccccc1)C2 (stereo not drawn) [Example 9] | 1900 | 
2 | CC(CC1CCc2c(cccc2OCC(=O)O)C1)=NOC(c1ccccc1)c1ccccc1 (stereo not drawn) [Example 6, [2-(2-Diphenylmethyloxyiminopropyl)-1,2,3,4-tetrahydro-naphthalen-5-yloxy]acetic acid] | 280 | 240
3 | CC(C)C(CC1CCc2c(cccc2OCC(=O)O)C1)=NOC(c1ccccc1)c1ccccc1 (stereo not drawn) [6(o)] | 2300 | 
4 | O=C(O)COc1cccc2c1CCC(CC=NOC(c1ccccc1)c1ccccc1)C2 (stereo not drawn) [Example 3, [2-(2-Diphenylmethyloxyiminoethyl)-1,2,3,4-tetrahydro-naphthalen-5-yloxy]acetic acid] | 890 | 500
5 | CC(CC1CCc2c(cccc2OCC(=O)O)C1)=NOC(c1ccccc1)c1cccnc1 (stereo not drawn) [6(h)] | 1300 | 1100
6 | CC(CC1CCc2c(cccc2OCC(=O)O)C1)=NOC(c1ccccc1)c1ccc([N+](=O)[O-])cc1 (stereo not drawn) [6(f)] | 1000 | 
7 | CCC(CC1CCc2c(cccc2OCC(=O)O)C1)=NOC(c1ccccc1)c1ccccc1 (stereo not drawn) [6(m)] | 270 | 71
8 | CC(CC1CCc2c(cccc2OCC(=O)O)C1)=NOC(c1ccccc1)c1ccc(Cl)cc1 (stereo not drawn) [6(k)] | 300 | 
9 | CC(CC1CCc2c(cccc2OCC(=O)O)C1)=NOC(c1ccc(F)cc1)c1ccc(F)cc1 (stereo not drawn) [6(e)] | 480 | 
10 | CC(CC1CCc2c(cccc2OCC(=O)O)C1)=NOC(c1ccccc1)c1ccncc1 (stereo not drawn) [6(g)] | 700 | 
11 | CCCCCC(ON=C(C)CC1CCc2c(cccc2OCC(=O)O)C1)c1ccccc1 (stereo not drawn) [6(r)] | 2700 | 
12 | CC(CC1CCc2c(cccc2OCC(=O)O)C1)=NOC(c1ccccc1)C1CCCCC1 (stereo not drawn) [6(s)] | 9600 | 
13 | COc1ccc(C(ON=C(C)CC2CCc3c(cccc3OCC(=O)O)C2)c2ccc(OC)cc2)cc1 (stereo not drawn) [6(j)] | 1800 | 
14 | CCCC(CC1CCc2c(cccc2OCC(=O)O)C1)=NOC(c1ccccc1)c1ccccc1 (stereo not drawn) [6(n)] | 270 | 120
15 | CC(CC1CCc2c(cccc2OCC(=O)O)C1)=NOC(c1ccccc1)c1ccccn1 (stereo not drawn) [6(i)] | 1800 | 
16 | O=C(O)COc1cccc2c1CCC2CC=NOC(c1ccccc1)c1ccccc1 (stereo not drawn) [3(e)] | 3600 | 
17 | O=C(O)COc1cccc2c1CCC(CC(=NOC(c1ccccc1)c1ccccc1)c1ccccc1)C2 (stereo not drawn) [6(p)] | 2800 | 
18 | CC(CC1CCc2c(cccc2OCC(=O)O)C1)=NOCc1ccccc1 (stereo not drawn) [6(l)] | 1400 | 
19 | O=C(O)COc1cccc2c1CCCC2CC=NOC(c1ccccc1)c1ccccc1 (stereo not drawn) [3(a)] | 5400 | 
20 | O=C(O)COc1cccc2c1CCC(CCC=NOC(c1ccccc1)c1ccccc1)C2 (stereo not drawn) [Example 4, [2-(3-Diphenylmethyloxyiminopropyl)-1,2,3,4-tetrahydro-naphthalen-5-yloxy]acetic acid] | 2500 | 
21 | CCOC(=O)COc1cccc2c1CCC(CC(C)=NOC(c1ccccc1)c1ccccc1)C2 (stereo not drawn) [Example 5, [2-(2-Diphenylmethyloxyiminopropyl)-1,2,3,4-tetrahydro-naphthalen-5-yloxy]acetic acid ethyl ester] | 7000 | 
22 | O=C(O)COc1cccc2c1CCC(CCNOC(c1ccccc1)c1ccccc1)C2 (stereo not drawn) [Example 8, [2-(2-Diphenylmethyloxyaminoethyl)-1,2,3,4-tetrahydro-naphthalen-5-yloxy]acetic acid] | 4000 | 
